Earlier results as cited in US8260406B2, “System and method for analyzing complex curvature of ECG curves” (Aalborg Universitet, priority 2006, dated 2012).

Tested on: cardiac repolarization (T-wave) in healthy subjects
Conditions: 30 min after sotalol administration; increase; p<0.05; occurring prior to QT prolongation; PCA of ECG Holter recordings

CC(C)NCC(O)c1ccc(NS(C)(=O)=O)cc1 (stereo not shown) [sotalol]
turbulence of repolarization velocity increased by: 9.02%
